Measured values published in patent US10738028B2, “Spiro three-membered ring, spiro five-membered ring peptide deformylase inhibitor and use thereof in antibacteria and anti-tumor” (priority 2016, dated 2020).
Values after ≈ are worked out from the molar mass of the structure shown. Where two headings read alike, the source gives them in different places.

What was measured:
[1] = test system: Escherichia coli (including ESBLs, non-ESBLs); assay: MIC, two-fold agar dilution (CLSI), clinical isolates; type: cell-based
Method in brief: (§1)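 Following the American Clinical and Laboratory Standards Institute procedure, agar two-fold dilution served to determine minimum inhibitory concentrations.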

[2] = test system: Enterococcus faecalis (EFA); assay: as above; type: cell-based
Method in brief: as §1

[3] = test system: methicillin-resistant Staphylococcus epidermidis (MRSE); assay: as above; type: cell-based
Method in brief: as §1

[4] = test system: methicillin-sensitive Staphylococcus epidermidis (MSSE); assay: as above; type: cell-based
Method in brief: as §1

[5] = test system: methicillin-sensitive Staphylococcus aureus (MSSA); assay: as above; type: cell-based
Method in brief: as §1

[6] = test system: methicillin-resistant Staphylococcus aureus (MRSA); assay: as above; type: cell-based
Method in brief: as §1

[7] = test system: methemoglobin in blood samples of three healthy volunteers; assay: Toxicity on methemoglobin in vitro (whole blood with S9 and NADPH, absorbance at 630 nm); type: cell-based, human; details: for MetHb % (n = 3): 500 μM compound, whole blood + S9 + NADPH, 5 hours at 37° C.; for probability of methemoglobin formation in blood compared with the control drugs LBM415 and GSK1322322: toxicity test in vitro, in words
Procedure: Because PDF inhibitors such as LBM415 and GSK1322322 can produce active species such as aromatic hydroxylamine and aromatic hydrazines in metabolic process, and cause human methemoglobinemia. To this end, continuous wavelength method was adopted in this invention to scan the absorption spectrum of blood samples in the wavelength range of 500 to 700 nm in the ultraviolet-visible spectrophotometer, and the contents of methemoglobin in blood samples of three healthy volunteers were calculated, after being effected by the synthesized compounds.
Experimental materials: Nicotinamide adenine dinucleotide phosphate (NADPH) reduction system: glucose-6-disodium phosphate, nicotinamide adenine dinucleoside phosphate and glucose-6-phosphate dehydrogenase (purchased from Shanghai yuanye Bio-Technology Co., Ltd) were added to 1 mL of phosphate buffer solution (PBS, pH 7.4), and the mixture was shaked in a shaker type water bath at 37° C. for 10 min, and then cooled to 0° C. Mixed human hepatocytes fraction S9 was purchased from Xenotech (20 mg S9 protein/1 mL suspension medium). Compounds were prepared to stock solution at a concentration of 50 mM, which was stored at −20° C. for use. Dapsone was used as positive control experimental reagent, which was purchased from Sigma Aldrich. 1% w/v triton X-100 was self-prepared. Blood samples were collected using Vacutainer tubes containing EDTA anticoagulants (BD, Franklin Lakes, USA), which were sampled from three healthy volunteers and used immediately after sampling.
Preparation of incubation system for blood samples and drugs: 250 μL of incubation system was consist of 220 μL of whole blood, 25 μL of S9 (final concentration: 2 mg S9 protein/mL incubation solution), 2.5 μL of NADPH form system (final concentration: 10 mM G-6-P, 1 mM NADP, 7.5 Units/mL) and 2.5 μL of stock solution of a compound (final concentration 500 μM). […] of incubation system was placed in an Eppendorf tube and incubated for 5 hours at 37° C. in water bath.
Determination of the content of methemoglobin: 60 μL of an incubated sample was taken and lysed with 3.0 mL of 1% Triton X-100. The content of methemoglobin (MetHb) was measured by an ultraviolet-visible spectrophotometer, with the Triton X-100 solution used as blank control. A sample was placed in a cuvette, 1 minute later, the spectrums of the sample in the wavelength range from 500 nm to 700 nm were recorded. The sample was added with 2 mg of potassium ferricyanide, and was allowed to stay stationary for 2 minutes for completely oxidization of ferrous iron in the sample, and standard spectrum of methemoglobin with saturated potassium ferricyanide. The percentage of methemoglobin formation (MetHb %) was obtained by the ratio of absorbance at 630 nm. MetHb %=(A′−AB′)/AM′, wherein, A′ was the total absorbance of the sample at 630 nm, AB′ was the base absorbance of the reduced blood in the sample at 630 nm, and AM′ was the absorbance of oxidized blood with saturated potassium ferricyanide at 630 nm.

[8] = test system: HCT-116 colorectal cancer cell line; assay: CCK-8 proliferation inhibition; type: cell-based; details: Homo sapiens, HCT-116, 72 h, read-out: HCT116 inhibition rate/%
Method in brief: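 HCT-116 cells, seeded at 2000 cells/well in McCoy's 5A with 10% newborn bovine serum, were cultured overnight at 37° C., 5% CO2, then exposed to compound dilutions in medium for 72 hours. Viability was read with 1:10 diluted CCK-8; controls received 1‰ DMSO.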

[9] = MIC in vitro anti-bacterial experiments, Gram-positive bacteria; type: cell-based; details: lowest MIC reached; read-out: minimum inhibitory concentration against Gram-positive bacteria
Description: 1. The invention adopts the two-fold agar dilution method recommended by the operating procedure of antimicrobial susceptibility testing set by American Clinical and Laboratory Standards Institute (CLSI) to determine the Minimum Inhibitory Concentration (MIC) of the test samples against the tested strains.

[10] = strain printed MRSA 14-1 (second line of that name, r23, before MRSE 14-2)
[11] = concentration of 30 μM, 72 hours, CCK-8

Compound	MIC (anti-bacterial activity) ([1]; strain ECO+ 14-1) [µg/mL]	MIC (anti-bacterial activity) ([1]; strain ECO+ 14-2) [µg/mL]	MIC (anti-bacterial activity) ([1]; strain ECO− 14-1) [µg/mL]	MIC (anti-bacterial activity) ([1]; strain ECO− 14-2) [µg/mL]	MIC (anti-bacterial activity) ([2]; strain EFA 14-1) [µg/mL]	MIC (anti-bacterial activity) ([2]; strain EFA 14-2) [µg/mL]	MIC (anti-bacterial activity) ([2]; strain EFA 14-3) [µg/mL]	MIC (anti-bacterial activity) ([2]; strain EFA 14-5) [µg/mL]	MIC (anti-bacterial activity) ([3]; strain MRSE 14-2) [µg/mL]	MIC (anti-bacterial activity) ([3]; strain MRSE 14-3) [µg/mL]	MIC (anti-bacterial activity) ([3]; strain MRSE 14-4) [µg/mL]	MIC (anti-bacterial activity) ([4]; strain MSSE 14-1) [µg/mL]	MIC (anti-bacterial activity) ([4]; strain MSSE 14-2) [µg/mL]	MIC (anti-bacterial activity) ([4]; strain MSSE 14-3) [µg/mL]	MIC (anti-bacterial activity) ([4]; strain MSSE 14-4) [µg/mL]	MIC (anti-bacterial activity) ([5]; strain MSSA 14-1) [µg/mL]	MIC (anti-bacterial activity) ([5]; strain MSSA 14-2) [µg/mL]	MIC (anti-bacterial activity) ([5]; strain MSSA 14-3) [µg/mL]	MIC (anti-bacterial activity) ([5]; strain MSSA 14-4) [µg/mL]	MIC (anti-bacterial activity) ([6]; strain MRSA 14-1) [µg/mL]	other results
CCCC[C@H](CN(O)C=O)C(=O)N1CC2(CC2)C[C@H]1C(=O)Nc1ccc(F)c[n+]1[O-] [Example 2]	1 (≈ 2.37 µM)	64 (≈ 151 µM)	128 (≈ 303 µM)	64 (≈ 151 µM)	0.25 (≈ 0.592 µM)	0.5 (≈ 1.18 µM)	0.5 (≈ 1.18 µM)	128 (≈ 303 µM)	0.06 (≈ 0.142 µM)	0.06 (≈ 0.142 µM)	0.125 (≈ 0.296 µM)	0.03 (≈ 0.071 µM)	0.125 (≈ 0.296 µM)	0.03 (≈ 0.071 µM)	0.03 (≈ 0.071 µM)	0.125 (≈ 0.296 µM)	0.125 (≈ 0.296 µM)	0.125 (≈ 0.296 µM)	0.125 (≈ 0.296 µM)	0.25 (≈ 0.592 µM)	MIC ([6]; Staphylococcus aureus, MRSA, range over strains, read-out: minimum inhibitory concentration MIC against methicillin-resistant Staphylococcus (MRSA)): 0.125 to 0.25 µg/mL (≈ 0.296 to 0.592 µM); MIC (anti-bacterial activity) ([6]; strain MRSA 14-2): 0.25 µg/mL (≈ 0.592 µM); MIC (anti-bacterial activity) ([6]; strain MRSA 14-4): 0.125 µg/mL (≈ 0.296 µM); MIC (anti-bacterial activity) ([6]; strain MRSA 14-5): 0.125 µg/mL (≈ 0.296 µM); MIC (anti-bacterial activity) [6, 10]: 0.03 µg/mL (≈ 0.071 µM); MetHb % (n = 3) [7]: 3.32 ± 0.05%; probability of methemoglobin formation in blood compared with the control drugs LBM415 and GSK1322322 [7]: lower probability of methemoglobin formation in blood; inhibition at 30 µM [8, 11]: 2%
CCCC[C@H](CN(O)C=O)C(=O)N1CC2(CC2)C[C@H]1C(=O)Nc1ccc(C)c(Nc2nccc(-c3cccnc3)n2)c1 [Example 4]	4 (≈ 7 µM)	> 128	> 128	> 128	0.03 (≈ 0.0525 µM)	0.015 (≈ 0.0262 µM)	0.03 (≈ 0.0525 µM)	> 128	< 0.008	< 0.008	< 0.008	0.015 (≈ 0.0262 µM)	< 0.008	< 0.008	0.015 (≈ 0.0262 µM)	0.015 (≈ 0.0262 µM)	0.015 (≈ 0.0262 µM)	0.015 (≈ 0.0262 µM)	0.015 (≈ 0.0262 µM)	0.015 (≈ 0.0262 µM)	MIC (anti-bacterial activity) ([6]; strain MRSA 14-2): 0.015 µg/mL (≈ 0.0262 µM); MIC (anti-bacterial activity) ([6]; strain MRSA 14-4): < 0.008 µg/mL; MIC (anti-bacterial activity) ([6]; strain MRSA 14-5): < 0.008 µg/mL; MIC (anti-bacterial activity) [6, 10]: < 0.008 µg/mL; MIC [9]: < 0.008 µg/mL; inhibition at 30 µM [8, 11]: 18%
CCCC[C@H](CN(O)C=O)C(=O)N1CC2(CC2)C[C@H]1C(=O)Nc1cccc(-c2cccnc2)c1 [Example 7, (S)-5-((R)-2-((N-hydroxyformamido)methyl)hexylcarbonyl)-N-(3-(pyridin-3-yl)phenyl)-5-5-azaspiro[2.4]heptane-6-amide]																					MetHb % (n = 3) [7]: 2.24 ± 0.05%; probability of methemoglobin formation in blood compared with the control drugs LBM415 and GSK1322322 [7]: lower probability of methemoglobin formation in blood; inhibition at 30 µM [8]: 23%
CCCC[C@H](CN(O)C=O)C(=O)N1CC2(CC2)C[C@H]1C(=O)Nc1cccc(Nc2ncccn2)c1 [Example 8]	1 (≈ 2.08 µM)	64 (≈ 133 µM)	128 (≈ 266 µM)	128 (≈ 266 µM)	0.5 (≈ 1.04 µM)	1 (≈ 2.08 µM)	1 (≈ 2.08 µM)	1 (≈ 2.08 µM)	0.25 (≈ 0.52 µM)	0.06 (≈ 0.125 µM)	0.25 (≈ 0.52 µM)	0.125 (≈ 0.26 µM)	0.25 (≈ 0.52 µM)	0.125 (≈ 0.26 µM)	0.25 (≈ 0.52 µM)	0.25 (≈ 0.52 µM)	0.25 (≈ 0.52 µM)	0.25 (≈ 0.52 µM)	0.125 (≈ 0.26 µM)	0.25 (≈ 0.52 µM)	MIC (anti-bacterial activity) ([6]; strain MRSA 14-2): 0.25 µg/mL (≈ 0.52 µM); MIC (anti-bacterial activity) ([6]; strain MRSA 14-4): 0.25 µg/mL (≈ 0.52 µM); MIC (anti-bacterial activity) ([6]; strain MRSA 14-5): 0.125 µg/mL (≈ 0.26 µM); MIC (anti-bacterial activity) [6, 10]: 0.125 µg/mL (≈ 0.26 µM); MetHb % (n = 3) [7]: 4.12 ± 0.07%; probability of methemoglobin formation in blood compared with the control drugs LBM415 and GSK1322322 [7]: lower probability of methemoglobin formation in blood; inhibition at 30 µM [8]: 11%
CCCC[C@H](CN(O)C=O)C(=O)N1CC2(CC2)C[C@H]1C(=O)Nc1nccc(-c2cccnc2)n1 [Example 9]	2 (≈ 4.29 µM)	> 64	> 64	> 64	0.5 (≈ 1.07 µM)	0.5 (≈ 1.07 µM)	1 (≈ 2.14 µM)	0.5 (≈ 1.07 µM)	0.25 (≈ 0.536 µM)	0.125 (≈ 0.268 µM)	0.5 (≈ 1.07 µM)	0.125 (≈ 0.268 µM)	0.5 (≈ 1.07 µM)	0.25 (≈ 0.536 µM)	0.5 (≈ 1.07 µM)	0.25 (≈ 0.536 µM)	0.5 (≈ 1.07 µM)	0.5 (≈ 1.07 µM)	0.25 (≈ 0.536 µM)	2 (≈ 4.29 µM)	MIC (anti-bacterial activity) ([6]; strain MRSA 14-2): 0.5 µg/mL (≈ 1.07 µM); MIC (anti-bacterial activity) ([6]; strain MRSA 14-4): 2 µg/mL (≈ 4.29 µM); MIC (anti-bacterial activity) ([6]; strain MRSA 14-5): 0.25 µg/mL (≈ 0.536 µM); MIC (anti-bacterial activity) [6, 10]: 0.25 µg/mL (≈ 0.536 µM); MetHb % (n = 3) [7]: 1.13 ± 0.06%; probability of methemoglobin formation in blood compared with the control drugs LBM415 and GSK1322322 [7]: lower probability of methemoglobin formation in blood; inhibition at 30 µM [8]: 6%
